23 compounds from patent US8278452B2, “Heterocyclic compounds and compositions as c-kit and PDGFR kinase inhibitors” (IRM LLC, priority 2008, dated 2012) can be followed below.

Broadly, the IC50 is the midpoint of a concentration-inhibition curve. Higher therefore signals weaker potency in that assay.

Each structure is given as a SMILES string.

This assay has as its system Mo7e cells which endogenously express c-kit. Description: Mo7e assay: inhibition of SCF dependent proliferation (MTT). The following applies: Table 1; SCF stimulated Mo7e cells, 48 hours, MTT. The assay is classed as cell-based. The protocol:
The compounds described herein are tested for inhibition of SCF dependent proliferation using Mo7e cells which endogenously express c-kit in a 96 well format. Two-fold serially diluted test compounds (Cmax=10 μM) are evaluated for their antiproliferative activity of Mo7e cells stimulated with human recombinant SCF. After 48 hours of incubation at 37° C., cell viability is measured by using a MTT colorimetric assay from Promega. IC50 values for compounds of the invention are quoted in table 1, supra.
Regarding `Cc1cc2c(cn1)cc(-c1cc(Nc3noc(C4CCO4)n3)ccc1C)c(=O)n2C` (centres unmarked) [Compound A66, 1,7-dimethyl-3-(2-methyl-5-{[5-(oxetan-2-yl)-1,2,4-oxadiazol-3-yl]amino}phenyl)-1,2-dihydro-1,6-naphthyridin-2-one], the IC50 stood at 143 nM.
Under `Cc1cc2c(cn1)cc(-c1cc(Nc3nnc(C(C)(C)C)o3)ccc1C)c(=O)n2C` [Compound B8, 3-{5-[(5-tert-butyl-1,3,4-oxadiazol-2-yl)amino]-2-methylphenyl}-1,7-dimethyl-1,2-dihydro-1,6-naphthyridin-2-one] stands 211 nM; under `Cc1cc2c(cn1)cc(-c1cc(Nc3noc(C(C)CO)n3)ccc1C)c(=O)n2C` (centres unmarked) [Compound A67, 3-(5-(5-(1-hydroxypropan-2-yl)-1,2,4-oxadiazol-3-ylamino)-2-methylphenyl)-1,7-dimethyl-1,6-naphthyridin-2(1H)-one], 299 nM; under `Cc1cc2c(cn1)cc(-c1cc(Nc3noc(C4CCC4)n3)ccc1C)c(=O)n2C` [Compound A11, 3-{5-[(5-cyclobutyl-1,2,4-oxadiazol-3-yl)amino]-2-methylphenyl}-1,7-dimethyl-1,2-dihydro-1,6-naphthyridin-2-one], 12 nM.
In the case of `Cc1cc2c(cn1)cc(-c1cc(Nc3nnc(CC(C)C)o3)ccc1C)c(=O)n2C` [Compound B5, 3-(5-(5-isobutyl-1,3,4-oxadiazol-2-ylamino)-2-methylphenyl)-1,7-dimethyl-1,6-naphthyridin-2(1H)-one] it was 108 nM.
Under `Cc1cc2c(cn1)cc(-c1cc(Nc3noc(-c4cc(C)oc4C)n3)ccc1C)c(=O)n2C` [Compound A2, 3-(5-{[5-(2,5-dimethylfuran-3-yl)-1,2,4-oxadiazol-3-yl]amino}-2-methylphenyl)-1,7-dimethyl-1,2-dihydro-1,6-naphthyridin-2-one] stands 126 nM.
Compound `Cc1cc2c(cn1)cc(-c1cc(Nc3noc(-c4ccncc4)n3)ccc1C)c(=O)n2C` [Compound A50, 1,7-dimethyl-3-(2-methyl-5-{[5-(pyridin-4-yl)-1,2,4-oxadiazol-3-yl]amino}phenyl)-1,2-dihydro-1,6-naphthyridin-2-one] came in with an IC50 of 271 nM.
In the case of `Cc1cc2c(cn1)cc(-c1cc(Nc3noc(C4CCC(O)C4)n3)ccc1C)c(=O)n2C` (centres unmarked) [Compound A73, 3-(5-(5-(3-hydroxycyclopentyl)-1,2,4-oxadiazol-3-ylamino)-2-methylphenyl)-1,7-dimethyl-1,6-naphthyridin-2(1H)-one] it was 178 nM; in that of `CCc1nc(Nc2ccc(C)c(-c3cc4cnc(C)cc4n(C)c3=O)c2)no1` [Compound A5, 3-(5-(5-ethyl-1,2,4-oxadiazol-3-ylamino)-2-methylphenyl)-1,7-dimethyl-1,6-naphthyridin-2(1H)-one], 49 nM; in that of `Cc1cc2c(cn1)cc(-c1cc(Nc3noc(-c4cccc(Cl)n4)n3)ccc1C)c(=O)n2C` [Compound A49, 3-(5-{[5-(6-chloropyridin-2-yl)-1,2,4-oxadiazol-3-yl]amino}-2-methylphenyl)-1,7-dimethyl-1,2-dihydro-1,6-naphthyridin-2-one], 333 nM.
In the case of `Cc1cc2c(cn1)cc(-c1cc(Nc3noc(-c4cccc(O)c4)n3)ccc1C)c(=O)n2C` [Compound A39, 3-(5-{[5-(3-hydroxyphenyl)-1,2,4-oxadiazol-3-yl]amino}-2-methylphenyl)-1,7-dimethyl-1,2-dihydro-1,6-naphthyridin-2-one] it was 480 nM; in that of `Cc1cc2c(cn1)cc(-c1cc(Nc3cc(-c4ccc(Cl)nc4)on3)ccc1C)c(=O)n2C` [Compound D12], 198 nM.
Under `Cc1cc2c(cn1)cc(-c1cc(Nc3noc(-c4ccccc4C)n3)ccc1C)c(=O)n2C` [Compound A16, 1,7-dimethyl-3-(2-methyl-5-{[5-(2-methylphenyl)-1,2,4-oxadiazol-3-yl]amino}phenyl)-1,2-dihydro-1,6-naphthyridin-2-one] stands 114 nM; under `CC(=O)c1ccc(-c2nc(Nc3ccc(C)c(-c4cc5cnc(C)cc5n(C)c4=O)c3)no2)cc1` [Compound A95, 3-(5-{[5-(4-acetylphenyl)-1,2,4-oxadiazol-3-yl]amino}-2-methylphenyl)-1,7-dimethyl-1,2-dihydro-1,6-naphthyridin-2-one], 310 nM; under `Cc1cc2c(cn1)cc(-c1cc(Nc3nnc(-c4ccccc4)s3)ccc1C)c(=O)n2C` [Compound H1, 1,7-dimethyl-3-(2-methyl-5-(5-phenyl-1,3,4-thiadiazol-2-ylamino)phenyl)-1,6-naphthyridin-2(1H)-one], 552 nM.
The compound `Cc1ccc(-c2nc(Nc3ccc(C)c(-c4cc5cnc(C)cc5n(C)c4=O)c3)no2)cc1` [Compound A13, 1,7-dimethyl-3-(2-methyl-5-{[5-(4-methylphenyl)-1,2,4-oxadiazol-3-yl]amino}phenyl)-1,2-dihydro-1,6-naphthyridin-2-one] gave an IC50 of 13 nM.
Under `Cc1cc2c(cn1)cc(-c1cc(Nc3noc(C4CCCOC4)n3)ccc1C)c(=O)n2C` (centres unmarked) [Compound A59, 1,7-dimethyl-3-(2-methyl-5-{[5-(oxan-3-yl)-1,2,4-oxadiazol-3-yl]amino}phenyl)-1,2-dihydro-1,6-naphthyridin-2-one] stands 233 nM; under `Cc1cc2c(cn1)cc(-c1cc(Nc3noc(-c4ccc(F)cn4)n3)ccc1C)c(=O)n2C` [Compound A25, 3-(5-{[5-(5-fluoropyridin-2-yl)-1,2,4-oxadiazol-3-yl]amino}-2-methylphenyl)-1,7-dimethyl-1,2-dihydro-1,6-naphthyridin-2-one], 82 nM.
`Cc1cc2c(cn1)cc(-c1cc(Nc3noc(-c4ccc(F)cc4Cl)n3)ccc1C)c(=O)n2C` [Compound A81, 3-(5-{[5-(2-chloro-4-fluorophenyl)-1,2,4-oxadiazol-3-yl]amino}-2-methylphenyl)-1,7-dimethyl-1,2-dihydro-1,6-naphthyridin-2-one]: half-maximal inhibition (IC50) required 237 nM.
Under `Cc1cc2c(cn1)cc(-c1cc(Nc3nnc(C4CCCCC4)o3)ccc1C)c(=O)n2C` [Compound B10, 3-{5-[(5-cyclohexyl-1,3,4-oxadiazol-2-yl)amino]-2-methylphenyl}-1,7-dimethyl-1,2-dihydro-1,6-naphthyridin-2-one] stands 378 nM.
In the case of `CC(=O)c1ccccc1-c1nc(Nc2ccc(C)c(-c3cc4cnc(C)cc4n(C)c3=O)c2)no1` [Compound A94, 3-(5-{[5-(2-acetylphenyl)-1,2,4-oxadiazol-3-yl]amino}-2-methylphenyl)-1,7-dimethyl-1,2-dihydro-1,6-naphthyridin-2-one] it was 258 nM; in that of `Cc1cc2c(cn1)cc(-c1cc(Nc3noc(-c4ccccc4C#N)n3)ccc1C)c(=O)n2C` [Compound A38, 2-(3-{[3-(1,7-dimethyl-2-oxo-1,2-dihydro-1,6-naphthyridin-3-yl)-4-methylphenyl]amino}-1,2,4-oxadiazol-5-yl)benzonitrile], 325 nM; in that of `Cc1cc2c(cn1)cc(-c1cc(Nc3nnc(-c4ccccc4)o3)ccc1C)c(=O)n2C` [Compound B4, 1,7-dimethyl-3-(2-methyl-5-(5-phenyl-1,3,4-oxadiazol-2-ylamino)phenyl)-1,6-naphthyridin-2(1H)-one], 105 nM.
